From PMC11110727, “Exploiting thiol-functionalized benzosiloxaboroles for achieving diverse substitution patterns – synthesis, characterization and biological evaluation of promising antibacterial agents” (RSC Medicinal Chemistry, 2024)
Values after ≈ are worked out from the molar mass of the structure shown. Read-outs that look alike come from different tables or passages of the source.

Columns and labels:
[1] = tested on: B. cepacia ATCC 25416; assay: Antibacterial activity: MIC/MBC, disc-diffusion; format: cell-based, Burkholderia cepacia; settings: Burkholderia cepacia, ATCC25416; B. cepacia ATCC 25416; read-out: MIC
Protocol: (§1) Direct antimicrobial activity was determined against the following standard strains: (1) Gram-positive cocci: methicillin-sensitive Staphylococcus aureus ATCC 6538P (MSSA), methicillin-resistant S. aureus subsp. aureus ATCC 43300 (MRSA), S. epidermidis ATCC 12228, Enterococcus faecium ATCC 6057, E. faecalis ATCC 29212, Bacillus subtilis ATCC 6633; (2) Gram-negative bacteria from Enterobacteriales order: Klebsiella pneumoniae ATCC 13883, Escherichia coli ATCC 25922, Enterobacter cloacae DSM 6234, Proteus mirabilis ATCC 12453, Serratia marcescens ATCC 13880; (3) Gram-negative non-fermentative rods: Acinetobacter baumannii ATCC 19606, Pseudomonas aeruginosa ATCC 27853, Stenotrophomonas maltophilia ATCC 12714, S. maltophilia ATCC 13637, Burkholderia cepacia ATCC 25416, Bordetella bronchiseptica ATCC 4617; (4) yeasts: Candida albicans ATCC 90028, C. krusei ATCC 6258, C. parapsilosis ATCC 22019, C. tropicalis (Castellani) Berkhout ATCC 750, C. tropicalis IBA 171, C. guilliermondii IBA 155, and Saccharomyces cerevisiae ATCC 9763. Moreover, 5 clinical strains of methicillin-resistant S. aureus were also included: NMI 664 K, NMI 1576 K, NMI 1712 K, NMI 1991 K, and NMI 2541 K. All strains were stored at −80 °C. Prior to testing, each bacterial strain was subcultured twice on tryptic soy agar TSA (bioMerieux) medium and yeast strains on Sabouraud dextrose agar (bioMerieux) for 24–48 h at 30 °C to ensure viability. The antimicrobial activity was evaluated as previously described[26] by the disc-diffusion method and the MIC determination assays according to the EUCAST (ref. [71] and [72]) and CLSI (ref. [53] and [73]) recommendations. Assessment of bactericidal (MBC) and fungicidal (MFC) activities was performed according to the CLSI recommendations.[54,74] […] The new benzosiloxaboroles were dissolved in DMSO (Sigma).
(§2) Considering that the MDR efflux pumps often contribute to Gram-negative rod resistance, the MIC values of studied agents, with or without the pump inhibitor, PAβN (20 μg mL^−1) (Sigma), were determined.[75] The MIC was determined using Mueller–Hinton II broth medium (MHB) (Becton Dickinson) by the broth microdilution method, according to the CLSI guideliness.[53] To minimize the influence of PAβN on the destabilization of bacterial cell covers, the tests were conducted in the presence of 1 mM MgSO4 (Sigma).[76] At least a 4-fold reduction in the MIC value after the addition of PAβN was considered significant.[56,77]

[2] = tested on: P. aeruginosa ATCC 27853; assay: Antibacterial activity: MIC/MBC, MIC with PAβN, disc-diffusion; format: cell-based; settings: Pseudomonas aeruginosa, ATCC27853; P. aeruginosa ATCC 27853; read-out: MIC
Protocol: as §1, §2

[3] = tested on: E. cloacae DSM 6234; assay: as above; format: cell-based, Enterobacter cloacae; settings: E. cloacae DSM 6234; for MIC: Enterobacter cloacae, DSM6234, read-out: MIC
Protocol: as §1, §2

[4] = tested on: S. aureus ATCC 6538P; assay: Antibacterial activity: MIC/MBC determination and disc-diffusion; format: cell-based, Staphylococcus aureus; settings: S. aureus ATCC 6538P; for diameter of inhibition zone: disc-diffusion, — = zone not observed; for MBC / MIC: Staphylococcus aureus, ATCC6538P; for MIC: read-out: MIC
Protocol: (§3) Direct antimicrobial activity was determined against the following standard strains: (1) Gram-positive cocci: methicillin-sensitive Staphylococcus aureus ATCC 6538P (MSSA), methicillin-resistant S. aureus subsp. aureus ATCC 43300 (MRSA), S. epidermidis ATCC 12228, Enterococcus faecium ATCC 6057, E. faecalis ATCC 29212, Bacillus subtilis ATCC 6633; (2) Gram-negative bacteria from Enterobacteriales order: Klebsiella pneumoniae ATCC 13883, Escherichia coli ATCC 25922, Enterobacter cloacae DSM 6234, Proteus mirabilis ATCC 12453, Serratia marcescens ATCC 13880; (3) Gram-negative non-fermentative rods: Acinetobacter baumannii ATCC 19606, Pseudomonas aeruginosa ATCC 27853, Stenotrophomonas maltophilia ATCC 12714, S. maltophilia ATCC 13637, Burkholderia cepacia ATCC 25416, Bordetella bronchiseptica ATCC 4617; (4) yeasts: Candida albicans ATCC 90028, C. krusei ATCC 6258, C. parapsilosis ATCC 22019, C. tropicalis (Castellani) Berkhout ATCC 750, C. tropicalis IBA 171, C. guilliermondii IBA 155, and Saccharomyces cerevisiae ATCC 9763. Moreover, 5 clinical strains of methicillin-resistant S. aureus were also included: NMI 664 K, NMI 1576 K, NMI 1712 K, NMI 1991 K, and NMI 2541 K. All strains were stored at −80 °C. Prior to testing, each bacterial strain was subcultured twice on tryptic soy agar TSA (bioMerieux) medium and yeast strains on Sabouraud dextrose agar (bioMerieux) for 24–48 h at 30 °C to ensure viability. The antimicrobial activity was evaluated as previously described[26] by the disc-diffusion method and the MIC determination assays according to the EUCAST (ref. [71] and [72]) and CLSI (ref. [53] and [73]) recommendations. Assessment of bactericidal (MBC) and fungicidal (MFC) activities was performed according to the CLSI recommendations.[54,74] The following reference agents were used: fluconazole (in the case of fungi), linezolid (for Gram-positive bacteria), and nitrofurantoin (for Gram-negative rods). The new benzosiloxaboroles were dissolved in DMSO (Sigma).

[5] = tested on: S. cerevisiae ATCC 9763; assay: Antifungal activity: MIC/MFC, disc-diffusion; format: cell-based, Saccharomyces cerevisiae; settings: for MIC: read-out: MIC
Protocol: as §3

[6] = tested on: B. bronchiseptica ATCC 4617; assay: Antibacterial activity: MIC/MBC, disc-diffusion; format: cell-based, Bordetella bronchiseptica; settings: Bordetella bronchiseptica, ATCC4617; B. bronchiseptica ATCC 4617; read-out: MIC
Protocol: as §1, §2

[7] = tested on: C. albicans ATCC 90028; assay: Antifungal activity: MIC/MFC, disc-diffusion; format: cell-based, Candida albicans; settings: for MIC: Candida albicans, ATCC90028, read-out: MIC
Protocol: as §3

[8] = tested on: C. parapsilosis ATCC 22019; assay: Antifungal activity: MIC/MFC, disc-diffusion; format: cell-based; settings: Lodderomyces parapsilosis, ATCC22019; read-out: MIC
Protocol: as §3

[9] = tested on: C. guilliermondii IBA 155; assay: Antifungal activity: MIC/MFC, disc-diffusion; format: cell-based; settings: for MIC: Meyerozyma guilliermondii, IBA155, read-out: MIC
Protocol: as §3

[10] = tested on: C. tropicalis IBA 171; assay: Antifungal activity: MIC/MFC, disc-diffusion; format: cell-based; settings: Candida tropicalis, IBA171; read-out: MIC
Protocol: as §3

[11] = tested on: C. tropicalis ATCC 750; assay: Antifungal activity: MIC/MFC, disc-diffusion; format: cell-based; settings: Candida tropicalis, ATCC750; read-out: MIC
Protocol: as §3

[12] = read-out: MBC (first MBC where Eagle effect)
[13] = value after the slash, read-out: second MBC (Eagle effect)
[14] = Saccharomyces cerevisiae, ATCC9763

| Compound | MIC [1] [µg/mL] | MIC [2] [µg/mL] | -fold reduction of MIC in the presence of PAβN ([3]; PAβN 20 μg mL^−1, MHB + 1 mM MgSO4) | MIC [3] [µg/mL] | diameter of inhibition zone [4] [mm] | MBC [4, 12] [µg/mL] | MIC [4] [µg/mL] | MBC [4, 13] [µg/mL] | diameter of inhibition zone ([5]; S. cerevisiae ATCC 9763, (-) = zone not observed, paper discs 9 mm) [mm] | MFC ([5]; Saccharomyces cerevisiae, ATCC9763, S. cerevisiae ATCC 9763) [µg/mL] | MIC [5, 14] [µg/mL] | MIC [6] [µg/mL] | diameter of inhibition zone ([7]; C. albicans ATCC 90028, (-) = zone not observed, paper discs 9 mm) [mm] | MIC [7] [µg/mL] | MIC [8] [µg/mL] | diameter of inhibition zone ([9]; C. guilliermondii IBA 155, (-) = zone not observed, paper discs 9 mm) [mm] | MIC [9] [µg/mL] | MIC [10] [µg/mL] | MIC [11] [µg/mL] |
| --- | --- | --- | --- | --- | --- | --- | --- | --- | --- | --- | --- | --- | --- | --- | --- | --- | --- | --- | --- |
| COC(=O)CCSc1ccc2c(c1F)[Si](C)(C)OB2O [Compound 4, Methyl 3-((7-fluoro-3-hydroxy-1,1-dimethyl-1,3-dihydrobenzo[c][1,2,5]oxasilaborol-6-yl)thio)propanoate] | > 400 | > 400 | 8 -fold | > 400 | 27 | 25 (≈ 79.6 µM) | 12.5 (≈ 39.8 µM) | 400 (≈ 1270 µM) | 32 | 400 (≈ 1270 µM) | 12.5 (≈ 39.8 µM) | > 400 | 12 | > 400 | 400 (≈ 1270 µM) | 12 | 400 (≈ 1270 µM) | > 400 | > 400 |
| C[Si]1(C)OB(O)c2cc(F)c(SCCC(=O)ON3C(=O)CCC3=O)c(F)c21 [Compound 5, 2,5-Dioxopyrrolidin-1-yl 3-((5,7-difluoro-3-hydroxy-1,1-dimethyl-1,3-dihydrobenzo-[c][1,2,5]oxasilaborol-6-yl)thio)propanoate] | > 400 | > 400 | – | > 400 | 15 | – | 400 (≈ 963 µM) | – | – | – | > 400 | > 400 | – | > 400 | > 400 | – | > 400 | > 400 | > 400 |
| C[Si]1(C)OB(O)c2cc(F)c(SCCC#N)c(F)c21 [Compound 6, 3-((5,7-Difluoro-3-hydroxy-1,1-dimethyl-1,3-dihydrobenzo[c][1,2,5]oxasilaborol-6-yl)thio)propanenitrile] | > 400 | > 400 | – | > 400 | 30 | 12.5 (≈ 41.8 µM) | 6.25 (≈ 20.9 µM) | > 400 | – | – | > 400 | > 400 | – | > 400 | > 400 | – | > 400 | > 400 | > 400 |
| C[Si]1(C)OB(O)c2cc(F)c(S(=O)(=O)N3CCOCC3)c(F)c21 [Compound 29, 5,7-Difluoro-1,1-dimethyl-6-(morpholinosulfonyl)benzo[c][1,2,5]oxasilaborol-3(1H)-ol] | > 400 | > 400 | – | > 400 | 16 | 400 (≈ 1100 µM) | 200 (≈ 551 µM) | – | – | – | – | > 400 | – | – | – | – | – | – | – |
